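Five concentrations, 48 hours, 96-well plates. Abbreviation: GI50, concentration required for 50% inhibition of growth.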 Calls of active or inactive are those of the source. No stated cut-off is given here; in the data, active = GI50 up to about 1.1 µM and inactive = higher.
Assays:
Experiment in all cases: growth of human tumour cells (NCI), 48 h
OVCAR-8 = system: OVCAR-8
SNB-78 = system: SNB-78
COLO 205 = system: COLO 205
HOP-92 = system: HOP-92
SK-MEL-5 = system: SK-MEL-5
NCI-H23 = system: NCI-H23
UO-31 = system: UO-31
HCT-116 = system: HCT-116
SN12C = system: SN12C
HCC 2998 = system: HCC 2998
SF-268 = system: SF-268
RPMI-8226 = system: RPMI-8226
SF-539 = system: SF-539
XF498 = system: XF498
SK-OV-3 = system: SK-OV-3
U-251 = system: U-251
SW-620 = system: SW-620
SNB-75 = system: SNB-75
K562 = system: K562
LXFL 529 = system: LXFL 529
DMS-273 = system: DMS-273
Malme-3M = system: Malme-3M
M14 = system: M14
IGROV-1 = system: IGROV-1
CAKI-1 = system: CAKI-1
DLD-1 = system: DLD-1
NCI-H522 = system: NCI-H522
SF-295 = system: SF-295
LOX IMVI = system: LOX IMVI
786-0 = system: 786-0
KM12 = system: KM12
SR = system: SR
HL-60 = system: HL-60
OVCAR-3 = system: OVCAR-3
MOLT-4 = system: MOLT-4
SNB-19 = system: SNB-19
UACC-257 = system: UACC-257
NCI-H226 = system: NCI-H226
UACC-62 = system: UACC-62
KM-20L2 = system: KM-20L2
HT-29 = system: HT-29
ACHN = system: ACHN
HOP-62 = system: HOP-62
RXF 393 = system: RXF 393
DMS-114 = system: DMS-114
OVCAR-4 = system: OVCAR-4
CCRF-CEM = system: CCRF-CEM
OVCAR-5 = system: OVCAR-5
SK-MEL-28 = system: SK-MEL-28
NCI-H460 = system: NCI-H460
HCT-15 = system: HCT-15
RXF 631 = system: RXF 631
TK-10 = system: TK-10
A549 = system: A549
M19-MEL = system: M19-MEL
EKVX = system: EKVX
SK-MEL-2 = system: SK-MEL-2
A498 = system: A498

SMILES: C[C@]1(CO)CCC[C@@]2(C)C1CC[C@H]1CC3C[C@]12CC[C@]3(C)O (some centres not stated)
- GI50 (OVCAR-8): > 100 µM (inactive)
- GI50 (SNB-78): 27.1 µM (inactive)
- GI50 (COLO 205): 36.4 µM (inactive)
- GI50 (HOP-92): > 100 µM (inactive)
- GI50 (SK-MEL-5): 17.9 µM (inactive)
- GI50 (NCI-H23): 83.8 µM (inactive)
- GI50 (UO-31): > 10 µM (inactive)
- GI50 (HCT-116): 49.8 µM (inactive)
- GI50 (SN12C): > 100 µM (inactive)
- GI50 (HCC 2998): 58.9 µM (inactive)
- GI50 (SF-268): > 100 µM (inactive)
- GI50 (RPMI-8226): 17.3 µM (inactive)
- GI50 (SF-539): 57.7 µM (inactive)
- GI50 (XF498): 47.1 µM (inactive)
- GI50 (SK-OV-3): > 100 µM (inactive)
- GI50 (U-251): 42.1 µM (inactive)
- GI50 (SW-620): > 100 µM (inactive)
- GI50 (SNB-75): 30.8 µM (inactive)
- GI50 (K562): 11.5 µM (inactive)
- GI50 (LXFL 529): 2.86 µM (inactive)
- GI50 (DMS-273): > 100 µM (inactive)
- GI50 (Malme-3M): > 100 µM (inactive)
- GI50 (M14): > 100 µM (inactive)
- GI50 (IGROV-1): > 10 µM (inactive)
- GI50 (CAKI-1): > 100 µM (inactive)
- GI50 (DLD-1): 32.4 µM (inactive)
- GI50 (NCI-H522): 16.3 µM (inactive)
- GI50 (SF-295): > 100 µM (inactive)
- GI50 (LOX IMVI): 90.6 µM (inactive)
- GI50 (786-0): > 100 µM (inactive)
- GI50 (KM12): > 100 µM (inactive)
- GI50 (SR): 83.2 µM (inactive)
- GI50 (HL-60): 5.22 µM (inactive)
- GI50 (OVCAR-3): > 100 µM (inactive)
- GI50 (MOLT-4): 2.77 µM (inactive)
- GI50 (SNB-19): > 100 µM (inactive)
- GI50 (UACC-257): 54.2 µM (inactive)
- GI50 (NCI-H226): > 100 µM (inactive)
- GI50 (UACC-62): > 100 µM (inactive)
- GI50 (KM-20L2): > 100 µM (inactive)
- GI50 (HT-29): > 100 µM (inactive)
- GI50 (ACHN): 74.6 µM (inactive)
- GI50 (HOP-62): 39.8 µM (inactive)
- GI50 (RXF 393): 46.7 µM (inactive)
- GI50 (DMS-114): 40.2 µM (inactive)
- GI50 (OVCAR-4): 46.1 µM (inactive)
- GI50 (CCRF-CEM): 0.213 µM (active)
- GI50 (OVCAR-5): > 100 µM (inactive)
- GI50 (SK-MEL-28): > 100 µM (inactive)
- GI50 (NCI-H460): 19 µM (inactive)
- GI50 (HCT-15): > 100 µM
- GI50 (RXF 631): 42.3 µM (inactive)
- GI50 (TK-10): 37.5 µM (inactive)
- GI50 (A549): 70.5 µM (inactive)

SMILES: O=C1c2ccccc2C(=O)c2c1cc(S(=O)(=O)O)c(O)c2O [Alizarin Red S]
- GI50 (OVCAR-8): > 100 µM (inactive)
- GI50 (SNB-78): > 100 µM (inactive)
- GI50 (COLO 205): > 100 µM (inactive)
- GI50 (HOP-92): 90.8 µM (inactive)
- GI50 (NCI-H23): > 100 µM (inactive)
- GI50 (UO-31): > 100 µM (inactive)
- GI50 (HCT-116): > 100 µM (inactive)
- GI50 (SN12C): > 100 µM (inactive)
- GI50 (HCC 2998): > 100 µM (inactive)
- GI50 (SF-268): > 100 µM (inactive)
- GI50 (RPMI-8226): > 100 µM (inactive)
- GI50 (M19-MEL): > 100 µM (inactive)
- GI50 (SF-539): > 100 µM (inactive)
- GI50 (EKVX): > 100 µM (inactive)
- GI50 (XF498): 16.7 µM (inactive)
- GI50 (SK-OV-3): > 100 µM (inactive)
- GI50 (U-251): > 100 µM (inactive)
- GI50 (SW-620): > 100 µM (inactive)
- GI50 (SNB-75): > 100 µM (inactive)
- GI50 (K562): > 100 µM (inactive)
- GI50 (LXFL 529): > 100 µM (inactive)
- GI50 (SK-MEL-2): 32.4 µM (inactive)
- GI50 (M14): > 100 µM (inactive)
- GI50 (IGROV-1): > 100 µM (inactive)
- GI50 (CAKI-1): > 100 µM (inactive)
- GI50 (DLD-1): > 100 µM (inactive)
- GI50 (NCI-H522): > 100 µM (inactive)
- GI50 (SF-295): > 100 µM (inactive)
- GI50 (LOX IMVI): > 100 µM (inactive)
- GI50 (786-0): > 100 µM (inactive)
- GI50 (KM12): > 100 µM (inactive)
- GI50 (SR): > 100 µM (inactive)
- GI50 (OVCAR-3): > 100 µM (inactive)
- GI50 (MOLT-4): > 100 µM (inactive)
- GI50 (SNB-19): > 10 µM (inactive)
- GI50 (UACC-257): > 100 µM (inactive)
- GI50 (NCI-H226): > 100 µM (inactive)
- GI50 (UACC-62): > 100 µM (inactive)
- GI50 (HT-29): > 100 µM (inactive)
- GI50 (ACHN): > 100 µM (inactive)
- GI50 (HOP-62): > 100 µM (inactive)
- GI50 (RXF 393): > 100 µM (inactive)
- GI50 (DMS-114): > 100 µM (inactive)
- GI50 (OVCAR-4): > 100 µM (inactive)
- GI50 (CCRF-CEM): > 100 µM (inactive)
- GI50 (A498): > 100 µM (inactive)
- GI50 (OVCAR-5): > 100 µM (inactive)
- GI50 (SK-MEL-28): > 100 µM (inactive)
- GI50 (NCI-H460): > 100 µM (inactive)
- GI50 (HCT-15): > 100 µM
- GI50 (RXF 631): > 100 µM (inactive)
- GI50 (TK-10): > 100 µM (inactive)
- GI50 (A549): > 100 µM (inactive)

Source: ChEMBL document CHEMBL1201862, “PubChem BioAssay data set” (2004)
